The supplement of paper PMC10307832

Experiments:
Experiment in all cases: relative viability (nuclei count vs DMSO), 5 days (fraction); higher = more cells survive
[1] = test system: NCI-H2009
How it was run: (§1)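 Dosing by pin tool came one day after lung cancer cell lines were seeded in 1536-well plates, using either one drug or a fixed anchor-drug dose plus five library-drug doses (not always all listed) in √10 steps. After 5 days, nuclei were counted on 4× images. Relative viability is treated-well nuclei count divided by vehicle-well nuclei count, and values are medians of duplicate plates.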

[2] = test system: NCI-H1651
How it was run: as §1

[3] = test system: NCI-H647
How it was run: as §1

[4] = test system: PC-14
How it was run: as §1

[5] = test system: NCI-H2170
How it was run: as §1

[6] = test system: SK-MES-1
How it was run: as §1

[7] = test system: LXF-289
How it was run: as §1

[8] = test system: LK-2
How it was run: as §1

[9] = test system: NCI-H2087
How it was run: as §1

[10] = test system: CAL-12T
How it was run: as §1

[11] = test system: NCI-H1755
How it was run: as §1

[12] = test system: H3255
How it was run: as §1

[13] = test system: NCI-H322M
How it was run: as §1

[14] = test system: NCI-H596
How it was run: as §1

[15] = test system: NCI-H2126
How it was run: as §1

[16] = test system: EMC-BAC-2
How it was run: as §1

[17] = test system: 201T
How it was run: as §1

[18] = test system: NCI-H3122
How it was run: as §1

[19] = test system: HOP-62
How it was run: as §1

[20] = test system: ABC-1
How it was run: as §1

[21] = test system: NCI-H1734
How it was run: as §1

Compound `Cc1cnc(-c2cnc(NCCNc3ccc(C#N)cn3)nc2-c2ccc(Cl)cc2Cl)[nH]1` + CS(=O)(=O)CCNCc1ccc(-c2ccc3ncnc(Nc4ccc(OCc5cccc(F)c5)c(Cl)c4)c3c2)o1 [Lapatinib] (partner 2 µM) has a relative viability ([1]; first compound 0.08 µM) of 0.991, a relative viability ([1]; first compound 0.253 µM) of 0.522 and a relative viability ([1]; first compound 0.8 µM) of 0.866. It also gave a relative viability ([1]; first compound 2.53 µM) of 0.905, a relative viability ([2]; first compound 0.08 µM) of 0.937 and a relative viability ([2]; first compound 0.253 µM) of 0.712. It also gave a relative viability ([2]; first compound 0.8 µM) of 0.862, a relative viability ([2]; first compound 2.53 µM) of 0.917 and a relative viability ([3]; first compound 0.08 µM) of 1.19. It also gave a relative viability ([3]; first compound 0.253 µM) of 0.838, a relative viability ([3]; first compound 0.8 µM) of 1.02 and a relative viability ([3]; first compound 2.53 µM) of 0.936. It also gave a relative viability ([4]; first compound 0.08 µM) of 0.352, a relative viability ([4]; first compound 0.253 µM) of 0.29 and a relative viability ([4]; first compound 0.8 µM) of 0.277. It also gave a relative viability ([4]; first compound 2.53 µM) of 0.38, a relative viability ([5]; first compound 0.08 µM) of 0.298 and a relative viability ([5]; first compound 0.253 µM) of 0.262. The relative viability ([5]; first compound 0.8 µM) was 0.279, the relative viability ([5]; first compound 2.53 µM) was 0.32 and the relative viability ([6]; first compound 0.08 µM) was 0.514. For the same compound, the relative viability ([6]; first compound 0.253 µM) was 0.474, the relative viability ([6]; first compound 0.8 µM) was 0.439 and the relative viability ([6]; first compound 2.53 µM) was 0.559. The relative viability ([7]; first compound 0.08 µM) was 0.957, the relative viability ([7]; first compound 0.253 µM) was 0.806 and the relative viability ([7]; first compound 0.8 µM) was 0.896. It also gave a relative viability ([7]; first compound 2.53 µM) of 1.04, a relative viability ([8]; first compound 0.08 µM) of 1.1 and a relative viability ([8]; first compound 0.253 µM) of 0.885. The relative viability ([8]; first compound 0.8 µM) was 0.928, the relative viability ([8]; first compound 2.53 µM) was 0.897 and the relative viability ([9]; first compound 0.08 µM) was 1.16. The relative viability ([9]; first compound 0.253 µM) was 0.729, the relative viability ([9]; first compound 0.8 µM) was 1.39 and the relative viability ([9]; first compound 2.53 µM) was 0.979. The relative viability ([10]; first compound 0.253 µM) was 0.64, the relative viability ([10]; first compound 2.53 µM) was 0.627 and the relative viability ([11]; first compound 0.08 µM) was 1.04. For the same compound, the relative viability ([11]; first compound 0.253 µM) was 0.785, the relative viability ([11]; first compound 0.8 µM) was 1.06 and the relative viability ([11]; first compound 2.53 µM) was 1.07. For the same compound, the relative viability ([12]; first compound 0.08 µM) was 0.28, the relative viability ([12]; first compound 0.253 µM) was 0.249 and the relative viability ([12]; first compound 0.8 µM) was 0.219. It also gave a relative viability ([12]; first compound 2.53 µM) of 0.244, a relative viability ([13]; first compound 0.08 µM) of 0.575 and a relative viability ([13]; first compound 0.253 µM) of 0.565. It also gave a relative viability ([13]; first compound 0.8 µM) of 0.594, a relative viability ([13]; first compound 2.53 µM) of 0.555 and a relative viability ([14]; first compound 0.08 µM) of 1.04. For the same compound, the relative viability ([14]; first compound 0.253 µM) was 0.994, the relative viability ([14]; first compound 0.8 µM) was 1.09 and the relative viability ([14]; first compound 2.53 µM) was 1.02. The relative viability ([15]; first compound 0.08 µM) was 0.753, the relative viability ([15]; first compound 0.253 µM) was 0.728 and the relative viability ([15]; first compound 0.8 µM) was 0.786. It also gave a relative viability ([15]; first compound 2.53 µM) of 0.741, a relative viability ([16]; first compound 0.08 µM) of 1.02 and a relative viability ([16]; first compound 0.253 µM) of 0.808. It also gave a relative viability ([16]; first compound 0.8 µM) of 0.887, a relative viability ([16]; first compound 2.53 µM) of 0.859 and a relative viability ([17]; first compound 0.08 µM) of 1.05. The relative viability ([17]; first compound 0.253 µM) was 0.551, the relative viability ([17]; first compound 0.8 µM) was 1.01 and the relative viability ([17]; first compound 2.53 µM) was 0.988. For the same compound, the relative viability ([18]; first compound 0.08 µM) was 0.977, the relative viability ([18]; first compound 0.253 µM) was 0.933 and the relative viability ([18]; first compound 0.8 µM) was 0.997. The relative viability ([18]; first compound 2.53 µM) was 1.03, the relative viability ([19]; first compound 0.08 µM) was 1.01 and the relative viability ([19]; first compound 0.253 µM) was 0.902. The relative viability ([19]; first compound 0.8 µM) was 1.05, the relative viability ([19]; first compound 2.53 µM) was 1.04 and the relative viability ([20]; first compound 0.08 µM) was 1.22. For the same compound, the relative viability ([20]; first compound 0.253 µM) was 0.969, the relative viability ([20]; first compound 0.8 µM) was 1.09 and the relative viability ([20]; first compound 2.53 µM) was 1.11. For the same compound, the relative viability ([21]; first compound 0.08 µM) was 1.13, the relative viability ([21]; first compound 0.253 µM) was 0.901 and the relative viability ([21]; first compound 0.8 µM) was 0.882. It also gave a relative viability ([21]; first compound 2.53 µM) of 1.05.
